In patent publication US5155041A, “Culture of Bacillus subtilis” (Korea Research Institute of Chemical Technology, priority 1990, dated 1992):
≈ marks a conversion by molar mass, not a printed value. Read-outs that look alike come from different tables or passages of the source.

What was measured:
Cercospora kikuchi = assay: Minimum inhibitory concentration, agar dilution; assay type: cell-based
Fusarium roseum = assay: microbe, parasite or virus in culture; assay type: cell-based
Glomerella glycine = assay: Minimum inhibitory concentration, agar dilution; assay type: cell-based
Phytophthora capsici = assay: Minimum inhibitory concentration, agar dilution; assay type: cell-based
Phytophthora parasitica = assay: Minimum inhibitory concentration, agar dilution; assay type: cell-based
Pyricularia oryzae = assay: microbe, parasite or virus in culture; assay type: cell-based
Rhizoctonia solani = assay: Minimum inhibitory concentration, agar dilution; assay type: cell-based
Rhizopus sp. = assay: Minimum inhibitory concentration, agar dilution; assay type: cell-based
[1] = tested on: Asperillus fumigatus ATCC 164264; assay: Minimum inhibitory concentration, agar dilution; assay type: cell-based
[2] = tested on: Cladosporium carrionii ATCC 1624; assay: Minimum inhibitory concentration, agar dilution; assay type: cell-based
[3] = tested on: Coccidioides immitis ATCC 34020; assay: microbe, parasite or virus in culture; assay type: cell-based
[4] = tested on: Epidermopyton floccosum ATCC 38486; assay: Minimum inhibitory concentration, agar dilution; assay type: cell-based
[5] = tested on: Microsporum canis ATCC 11622; assay: Minimum inhibitory concentration, agar dilution; assay type: cell-based
Microsporum gypseum = assay: Minimum inhibitory concentration, agar dilution; assay type: cell-based
[6] = tested on: Sporothrix schenkii ATCC 10212; assay: Minimum inhibitory concentration, agar dilution; assay type: cell-based
[7] = tested on: Trichophyton mentagrophytes ATCC 9533; assay: Minimum inhibitory concentration, agar dilution; assay type: cell-based
Trichophyton ruburum = assay: Minimum inhibitory concentration, agar dilution; assay type: cell-based
mice = details: mouse, in vivo, ip; cited from earlier work
Botrytis cinerea = assay: Minimum inhibitory concentration, agar dilution
Fusarium oxysporum = assay: Minimum inhibitory concentration, agar dilution
[8] = Phytophthora capsici, read-out: MIC
[9] = Rhizoctonia solani, read-out: MIC
[10] = Cercospora kikuchi, read-out: MIC
[11] = Glomerella glycine, read-out: MIC
[12] = Phytophthora nicotianae, Phytophthora parasitica, read-out: MIC
[13] = Asperillus fumigatus ATCC 164264, read-out: MIC
[14] = Cladophialophora carrionii, ATCC1624, Cladosporium carrionii ATCC 1624, read-out: MIC
[15] = Epidermopyton floccosum ATCC 38486, read-out: MIC
[16] = ATCC11622, Microsporum canis ATCC 11622, read-out: MIC
[17] = Nannizzia gypsea, Microsporum gypseum, read-out: MIC
[18] = ATCC10212, Sporothrix schenkii ATCC 10212, read-out: MIC
[19] = ATCC9533, Trichophyton mentagrophytes ATCC 9533, read-out: MIC
[20] = Trichophyton ruburum, read-out: MIC

## C[C@@H]1C[C@@H]([C@H](O)CC2CC(=O)NC(=O)C2)C(=O)[C@@H](C)C1 [cycloheximide]
Cercospora kikuchi; Cercospora, read-out: MIC
  MIC: 100 µg/mL (≈ 355 µM)
Fusarium roseum; Fusarium sambucinum
  MIC: 25 µg/mL (≈ 88.9 µM)
Glomerella glycine; read-out: MIC
  MIC: 25 µg/mL (≈ 88.9 µM)
Phytophthora capsici; [8]
  MIC: 0.8 µg/mL (≈ 2.84 µM)
Phytophthora parasitica; Phytophthora nicotianae, read-out: MIC
  MIC: 1.5 µg/mL (≈ 5.33 µM)
Pyricularia oryzae; read-out: MIC
  MIC: 3 µg/mL (≈ 10.7 µM)
Rhizoctonia solani; [9]
  MIC: 12 µg/mL (≈ 42.7 µM)
Rhizopus sp.; Rhizopus, read-out: MIC
  MIC: > 100 µg/mL
[1]; read-out: MIC
  MIC: 50 µg/mL (≈ 178 µM)
[2]; Cladophialophora carrionii, ATCC1624, read-out: MIC
  MIC: > 100 µg/mL
[3]; ATCC34020, read-out: MIC
  MIC: > 100 µg/mL
[4]; read-out: MIC
  MIC: > 100 µg/mL
[5]; Microsporum canis, ATCC11622, read-out: MIC
  MIC: > 100 µg/mL
Microsporum gypseum; Nannizzia gypsea, read-out: MIC
  MIC: > 100 µg/mL
[6]; Sporothrix, ATCC10212, read-out: MIC
  MIC: > 100 µg/mL
[7]; Trichophyton mentagrophytes, ATCC9533, read-out: MIC
  MIC: > 100 µg/mL
Trichophyton ruburum; Trichophyton, read-out: MIC
  MIC: > 100 µg/mL

## NC(=O)OCC(O)C(O)C(N)C(=O)NC(C(=O)O)C1OC(n2cc(CO)c(=O)[nH]c2=O)C(O)C1O (stereo not drawn) [polyoxin B]
Cercospora kikuchi; [10]
  MIC: > 100 µg/mL
Fusarium roseum; Fusarium sambucinum
  MIC: > 100 µg/mL
Glomerella glycine; [11]
  MIC: > 100 µg/mL
Phytophthora capsici; [8]
  MIC: > 100 µg/mL
Phytophthora parasitica; [12]
  MIC: > 100 µg/mL
Pyricularia oryzae
  MIC: > 100 µg/mL
Rhizoctonia solani; [9]
  MIC: > 100 µg/mL
Rhizopus sp.; Rhizopus sp., read-out: MIC
  MIC: > 100 µg/mL
[1]; [13]
  MIC: > 100 µg/mL
[2]; [14]
  MIC: > 100 µg/mL
[3]; ATCC34020
  MIC: > 100 µg/mL
[4]; [15]
  MIC: > 100 µg/mL
[5]; [16]
  MIC: > 100 µg/mL
Microsporum gypseum; [17]
  MIC: > 100 µg/mL
[6]; [18]
  MIC: > 100 µg/mL
[7]; [19]
  MIC: > 100 µg/mL
Trichophyton ruburum; [20]
  MIC: > 100 µg/mL

## COC1=CC(=O)C[C@@H](C)[C@]12Oc1c(Cl)c(OC)cc(OC)c1C2=O [griseofulvin]
Cercospora kikuchi; [10]
  MIC: > 100 µg/mL
Fusarium roseum; Fusarium sambucinum
  MIC: > 100 µg/mL
Glomerella glycine; [11]
  MIC: > 100 µg/mL
Phytophthora capsici; [8]
  MIC: 100 µg/mL (≈ 283 µM)
Phytophthora parasitica; [12]
  MIC: 25 µg/mL (≈ 70.9 µM)
Pyricularia oryzae
  MIC: > 100 µg/mL
Rhizoctonia solani; [9]
  MIC: 100 µg/mL (≈ 283 µM)
Rhizopus sp.; Rhizopus sp., read-out: MIC
  MIC: > 100 µg/mL
[1]; [13]
  MIC: > 100 µg/mL
[2]; [14]
  MIC: > 100 µg/mL
[3]; ATCC34020
  MIC: > 100 µg/mL
[4]; [15]
  MIC: 1.5 µg/mL (≈ 4.25 µM)
[5]; Microsporum canis, ATCC11622
  MIC: 6 µg/mL (≈ 17 µM)
Microsporum gypseum; Nannizzia gypsea
  MIC: 3 µg/mL (≈ 8.5 µM)
[6]; [18]
  MIC: > 100 µg/mL
[7]; [19]
  MIC: 3 µg/mL (≈ 8.5 µM)
Trichophyton ruburum; [20]
  MIC: 1.5 µg/mL (≈ 4.25 µM)

## C[C@@H]1[C@H](O)[C@@H](C)/C=C/C=C/CC/C=C/C=C/C=C/C=C/C(O[C@H]2O[C@H](C)[C@@H](O)[C@H](N)[C@@H]2O)CC2O[C@](O)(CC(O)C(O)CCC(O)CC(O)CC(O)CC(=O)O[C@H]1C)CC(O)C2C(=O)O (stereo partly drawn) [nystatin]
Cercospora kikuchi
  MIC: 12 µg/mL (≈ 13 µM)
Fusarium roseum; Fusarium roseum
  MIC: 6 µg/mL (≈ 6.48 µM)
Glomerella glycine
  MIC: 6 µg/mL (≈ 6.48 µM)
Phytophthora capsici
  MIC: 100 µg/mL (≈ 108 µM)
Phytophthora parasitica
  MIC: 100 µg/mL (≈ 108 µM)
Pyricularia oryzae
  MIC: 0.8 µg/mL (≈ 0.864 µM)
Rhizoctonia solani
  MIC: 1.5 µg/mL (≈ 1.62 µM)
Rhizopus sp.
  MIC: 100 µg/mL (≈ 108 µM)
[1]
  MIC: 12 µg/mL (≈ 13 µM)
[2]
  MIC: 50 µg/mL (≈ 54 µM)
[3]; ATCC34020
  MIC: 6 µg/mL (≈ 6.48 µM)
[4]
  MIC: 1.5 µg/mL (≈ 1.62 µM)
[5]
  MIC: 1.5 µg/mL (≈ 1.62 µM)
Microsporum gypseum
  MIC: 3 µg/mL (≈ 3.24 µM)
[6]
  MIC: 25 µg/mL (≈ 27 µM)
[7]
  MIC: 3 µg/mL (≈ 3.24 µM)
Trichophyton ruburum
  MIC: 3 µg/mL (≈ 3.24 µM)
mice
  LD50: ~ 200 mg/kg
Botrytis cinerea
  MIC: 1.5 µg/mL (≈ 1.62 µM)
Fusarium oxysporum
  MIC: 12 µg/mL (≈ 13 µM)

## C[C@@H]1[C@H](O)[C@@H](C)/C=C/C=C/C=C/C=C/C=C/C=C/C=C/[C@H](O[C@@H]2O[C@H](C)[C@@H](O)[C@H](N)[C@@H]2O)C[C@@H]2O[C@](O)(C[C@@H](O)C[C@@H](O)[C@H](O)CC[C@@H](O)C[C@@H](O)CC(=O)O[C@H]1C)C[C@H](O)[C@H]2C(=O)O [amphotericin B]
Cercospora kikuchi; Cercospora
  MIC: 100 µg/mL (≈ 108 µM)
Fusarium roseum; Fusarium sambucinum
  MIC: 6 µg/mL (≈ 6.49 µM)
Glomerella glycine
  MIC: 25 µg/mL (≈ 27.1 µM)
Phytophthora capsici; Phytophthora capsici
  MIC: 25 µg/mL (≈ 27.1 µM)
Phytophthora parasitica; Phytophthora nicotianae
  MIC: 50 µg/mL (≈ 54.1 µM)
Pyricularia oryzae
  MIC: 0.2 µg/mL (≈ 0.216 µM)
Rhizoctonia solani; Rhizoctonia solani
  MIC: 3 µg/mL (≈ 3.25 µM)
Rhizopus sp.; Rhizopus
  MIC: 100 µg/mL (≈ 108 µM)
[1]
  MIC: 1.5 µg/mL (≈ 1.62 µM)
[2]; Cladophialophora carrionii, ATCC1624
  MIC: 50 µg/mL (≈ 54.1 µM)
[3]; ATCC34020
  MIC: 0.4 µg/mL (≈ 0.433 µM)
[4]
  MIC: 0.4 µg/mL (≈ 0.433 µM)
[5]; Microsporum canis, ATCC11622
  MIC: 1.5 µg/mL (≈ 1.62 µM)
Microsporum gypseum; Nannizzia gypsea
  MIC: 0.8 µg/mL (≈ 0.866 µM)
[6]; Sporothrix, ATCC10212
  MIC: 50 µg/mL (≈ 54.1 µM)
[7]; Trichophyton mentagrophytes, ATCC9533
  MIC: 0.8 µg/mL (≈ 0.866 µM)
Trichophyton ruburum; Trichophyton
  MIC: 0.8 µg/mL (≈ 0.866 µM)
mice
  LD50: 88 mg/kg
Botrytis cinerea; Botrytis cinerea
  MIC: 3 µg/mL (≈ 3.25 µM)
Fusarium oxysporum; Fusarium oxysporum
  MIC: 50 µg/mL (≈ 54.1 µM)

## C[C@H]1O[C@H](O[C@H]2[C@H](O)[C@@H](O)[C@@H](O)[C@H](O)[C@@H]2O)[C@@H](N)C[C@@H]1NC(=N)C(=O)O [kasugamycin]
Cercospora kikuchi; [10]
  MIC: > 100 µg/mL
Fusarium roseum; Fusarium sambucinum
  MIC: > 100 µg/mL
Glomerella glycine; [11]
  MIC: > 100 µg/mL
Phytophthora capsici; [8]
  MIC: > 100 µg/mL
Phytophthora parasitica; [12]
  MIC: > 100 µg/mL
Pyricularia oryzae
  MIC: 25 µg/mL (≈ 65.9 µM)
Rhizoctonia solani; [9]
  MIC: > 100 µg/mL
Rhizopus sp.; Rhizopus sp., read-out: MIC
  MIC: > 100 µg/mL
[1]; [13]
  MIC: > 100 µg/mL
[2]; [14]
  MIC: > 100 µg/mL
[3]; ATCC34020
  MIC: > 100 µg/mL
[4]; [15]
  MIC: > 100 µg/mL
[5]; [16]
  MIC: > 100 µg/mL
Microsporum gypseum; [17]
  MIC: > 100 µg/mL
[6]; [18]
  MIC: > 100 µg/mL
[7]; [19]
  MIC: > 100 µg/mL
Trichophyton ruburum; [20]
  MIC: > 100 µg/mL
